Data taken from patent US8044068B2, “Aminopyrrolidine compound” (Taisho Pharmaceutical Co., Ltd, priority 2006, dated 2011).
Structures can show the parent of a compound that is named as a salt.

target: T1, human MC4 receptor (Homo sapiens, UniProt P32245); experiment: MC4 receptor binding experiment ([125I]Nle4-D-Phe7-α-MSH displacement); conditions: human MC4 receptor expressing HEK-293 cell membrane; [125I]Nle4-D-Phe7-α-MSH 0.2 nM, 25° C.
T1 construct: purchased Biolinks K.K; host or cells: HEK-293
T1 sequence (P32245 whole entry): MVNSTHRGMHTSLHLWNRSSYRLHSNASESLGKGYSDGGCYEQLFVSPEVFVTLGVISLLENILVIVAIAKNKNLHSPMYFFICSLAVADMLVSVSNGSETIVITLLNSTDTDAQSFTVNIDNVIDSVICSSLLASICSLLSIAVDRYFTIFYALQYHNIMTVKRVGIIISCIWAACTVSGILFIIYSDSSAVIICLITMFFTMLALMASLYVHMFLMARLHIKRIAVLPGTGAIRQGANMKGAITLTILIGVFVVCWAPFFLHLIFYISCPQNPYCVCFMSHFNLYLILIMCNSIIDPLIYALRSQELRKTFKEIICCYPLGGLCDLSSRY
Method: The MC4 receptor binding experiment was performed according to the method described in Pharmacology & Toxicology, 79, 161-165, 1996. The human MC4 receptor expressing-cell membrane obtained by expressing the human MC4 receptor in a HEK-293 cell was purchased from Biolinks K.K. The cell membrane was homogenized with 50 mM tris hydrochloride buffer (pH 7.4) containing 2 mM ethylenediaminetetraacetic acid, 10 mM calcium chloride, and 100 μM phenylmethylsulfonyl fluoride. The homogenate was centrifuged at 48,000×g at 4° C. for 20 min. The sediment obtained by centrifugation was rehomogenized with the same buffer, and the homogenate was centrifuged at 48,000×g at 4° C. for 20 min. This procedure was repeated twice. The sediment was suspended in 50 mM tris hydrochloride buffer (pH 7.4) containing 2 mM ethylenediaminetetraacetic acid, 10 mM calcium chloride, 100 μM phenylmethylsulfonyl fluoride, and 0.1% bovine serum albumin at a protein concentration of 100 μg/ml, and the suspension was used as a crude membrane preparation for the binding experiment. The crude membrane preparation (0.25 ml, 25 μg protein) was reacted with [^125I]Nle^4-D-Phe^7-α-MSH (final concentration, 0.2 nM) at 25° C. for 120 min. After completion of the reaction, the reaction solution was filtered by suction, using a cell harvester for the receptor binding experiment, onto a GF/C glass fiber filter paper immersed in 50 mM tris hydrochloride buffer (pH 7.4) containing 0.5% bovine serum for 2 h. Radioactivity on the filter paper was measured using a γ counter. The quantity of binding in the presence of 1 μM Nle^4-D-Phe^7-α-MSH was obtained as nonspecific binding, and specific binding was obtained by deducting the nonspecific binding from the total quantity, binding in the absence of 1 μM Nle^4-D-Phe^7-α-MSH. The test drug was dissolved in 100% DMSO solution and added to the membrane preparation at the same time as [^125I]Nle^4-D-Phe^7-α-MSH. The IC50 value was obtained from the inhibition curve in the range of 10^−10 to 10^−5 M. The binding test results of representative compounds are shown in Table 21 as examples.

| SMILES | IC50 |
| --- | --- |
| CO[C@@H]1CCN(c2cc(C)nc(N[C@@H]3CN(C(=O)Cc4ccc(OC(F)(F)F)cc4)C[C@H]3O)n2)C1 [Compound 13-004] | 46 nM |
| CO[C@@H]1CN(C(=O)Cc2ccc(OC(F)(F)F)cc2)C[C@H]1Nc1cc(C)c2cc(O)ccc2n1 [Compound 12-008, 1-((3R,4R)-3-(6-hydroxy-4-methylquinolin-2-ylamino)-4-methoxypyrrolidin-1-yl)-2-(4-trifluoromethoxyphenyl)ethanone] | 12 nM |
| CS(=O)(=O)N1CC[C@@H](Nc2nc(N[C@@H]3CN(C(=O)Cc4ccc(OC(F)(F)F)cc4)C[C@H]3O)nc3ccc(Cl)cc23)C1 [Compound 11-008] | 1.3 nM |
| Cc1cc(N[C@@H]2CN(C(=O)Cc3ccc(OC(F)(F)F)cc3)C[C@H]2O)nc2ccc(O)cc12 [Compound 12-007] | 14 nM |
| CCCN(CC1CC1)c1cc(C)nc(N[C@H]2CCN(C(=O)Cc3ccc(OC(F)(F)F)cc3)C2)n1 [Compound 4-035] | 52 nM |
| COc1ccc2nc(N[C@H]3CCN(C(=O)Cc4ccc(OC(F)(F)F)cc4)C3)nc(N3CCC(S(C)(=O)=O)CC3)c2c1 [Compound 1-078] | 1.5 nM |
| Cc1ccc2nc(N[C@@H]3CN(C(=O)Cc4ccc(OC(F)(F)F)cc4)C[C@H]3O)cc(C)c2c1 [Compound 12-004] | 13 nM |
| O=C(Cc1ccc(OC(F)(F)F)cc1)N1CC[C@H](Nc2nc(N3CCC(N4CCOCC4)CC3)c3ccc(F)cc3n2)C1 [Compound 1-092] | 37 nM |
| CO[C@H]1CN(c2nc(N[C@H]3CCN(C(=O)Cc4ccc(OC(F)(F)F)cc4)C3)nc3ccccc23)C[C@H]1OC [Compound 1-206] | 2.3 nM |
| COc1ccc2nc(N[C@H]3CCN(C(=O)Cc4ccc(OC(F)(F)F)cc4)C3)cc(N3CCOCC3)c2c1 [Compound 3-011, (S)-1-(3-(6-methoxy-4-morpholinoquinolin-2-ylamino)pyrrolidin-1-yl)-2-(4-trifluoromethoxyphenyl)ethanone] | 6.8 nM |
| CS(=O)(=O)C1CCN(c2nc(N[C@H]3CCN(C(=O)Cc4ccc(OC(F)(F)F)cc4)C3)nc3cscc23)CC1 [Compound 8-005] | 12 nM |
| Cc1cc(N[C@H]2CCN(C(=O)C3(c4ccc(Cl)cc4)CC3)C2)nc2ccc(O)cc12 [Compound 3-038] | 20 nM |
| Cc1ccc2nc(N[C@H]3CCN(C(=O)Cc4ccc(OC(F)(F)F)cc4)C3)nc(NCCc3ccccn3)c2c1 [Compound 1-019] | 10 nM |
| COc1ccc2nc(N[C@H]3CCN(C(=O)Cc4ccc(OC(F)(F)F)cc4)C3)cc(C)c2c1 [Compound 3-023] | 2.4 nM |
| COc1ccc2nc(N[C@H]3CCN(C(=O)Cc4ccc(OC(F)(F)F)cc4)C3)nc(N[C@@H]3CCN(S(C)(=O)=O)C3)c2c1 [Compound 1-040] | 0.4 nM |
| CN(C)C(=O)N1CCN(c2nc(N[C@H]3CCN(C(=O)Cc4ccc(OC(F)(F)F)cc4)C3)nc3ccccc23)CC1 [Compound 1-174] | 21 nM |
| Cc1cc(N[C@H]2CCN(S(C)(=O)=O)C2)nc(N[C@H]2CCN(C(=O)Cc3ccc(OC(F)(F)F)cc3)C2)n1 [Compound 4-022] | 30 nM |
| COc1ccc2nc(N[C@H]3CCN(C(=O)Cc4ccc(OC(F)(F)F)cc4)C3)nc(N3CCN(C(=O)c4cccnc4)CC3)c2c1 [Compound 1-176] | 1 nM |
| CO[C@@H]1CN(C(=O)Cc2ccc(OC(F)(F)F)cc2)C[C@H]1Nc1cc(N2CCS(=O)(=O)CC2)cc(C)n1 [Compound 14-003] | 7.4 nM |
| Cc1cc(N2CCS(=O)(=O)CC2)nc(N[C@H]2CCN(C(=O)Cc3ccc(OC(F)(F)F)cc3)C2)n1 [Compound 4-054] | 39 nM |
| COc1ccc2nc(N[C@@H]3CN(C(=O)Cc4ccc(OC(F)(F)F)cc4)C[C@H]3O)cc(OC)c2c1 [Compound 12-017] | 3.3 nM |

| SMILES | IC50 |
| --- | --- |
| CN(C)c1nc(N[C@H]2CCN(C(=O)Cc3ccc(OC(F)(F)F)cc3)C2)nc2ccsc12 [Compound 6-001, (S)-1-(3-(4-dimethylaminothieno[3,2-d]pyrimidin-2-ylamino)pyrrolidin-1-yl)-2-(4-trifluoromethoxyphenyl)ethanone 1 maleate] | 71 nM |
| COc1ccc2nc(N[C@H]3CCN(C(=O)Cc4ccc(OC(F)(F)F)cc4)C3)nc(N[C@@H]3CCN(C(C)=O)C3)c2c1 [Compound 1-032] | 0.4 nM |
| Cc1ccc2nc(N[C@H]3CCN(C(=O)Cc4ccc(OC(F)(F)F)cc4)C3)nc(N(C)C)c2c1 [Compound 1-003] | 18 nM |
| COc1ccc2nc(N[C@@H]3CN(C(=O)Cc4ccc(OC(F)(F)F)cc4)C[C@H]3O)nc(N3CCN(C(C)=O)CC3)c2c1 [Compound 11-015] | 1 nM |
| Cc1cc(N2CCS(=O)(=O)CC2)cc(N[C@H]2CCN(C(=O)Cc3ccc(OC(F)(F)F)cc3)C2)n1 [Compound 5-006, 1-((S)-3-(4-(1,1-dioxo-1λ^6-thiomorpholin-4-yl)-6-methylpyridin-2-ylamino)pyrrolidin-1-yl)-2-(4-trifluoromethoxyphenyl)ethanone] | 9.3 nM |
| O=C1CN(c2nc(N[C@H]3CCN(C(=O)Cc4ccccc4-c4ccccc4)C3)nc3ccccc23)CCN1 [Compound 1-128] | 7.3 nM |
| COc1ccc2nc(N[C@H]3CCN(C(=O)C(C)(C)c4ccc(Cl)cc4)C3)cc(C)c2c1 [Compound 3-041] | 46 nM |
| CO[C@@H]1CN(C(=O)Cc2ccc(OC(F)(F)F)cc2)C[C@H]1Nc1cc(N2CCOCC2)cc(C)n1 [Compound 14-002] | 19 nM |
| O=C(c1ccc(F)cc1)C1CCN(c2nc(N[C@H]3CCN(C(=O)Cc4ccccc4-c4ccccc4)C3)nc3ccccc23)CC1 [Compound 1-073] | 39 nM |
| CC(=O)N1CCN(c2nc(N[C@H]3CCN(C(=O)Cc4ccc(OC(F)(F)F)cc4)C3)nc3cscc23)CC1 [Compound 8-004] | 11 nM |
| COc1cc(N[C@H]2CCN(C(=O)Cc3ccc(OC(F)(F)F)cc3)C2)nc2ccc(C)cc12 [Compound 3-034] | 16 nM |
| Cc1cc(N[C@@H]2CCN(S(C)(=O)=O)C2)nc(N[C@@H]2CN(C(=O)Cc3ccc(OC(F)(F)F)cc3)C[C@H]2O)n1 [Compound 13-002] | 25 nM |
| COc1ccc2nc(N[C@@H]3CN(C(=O)Cc4ccc(OC(F)(F)F)cc4)C[C@H]3O)nc(N[C@@H]3CCN(S(C)(=O)=O)C3)c2c1 [Compound 11-012] | 0.3 nM |
| Cc1cc(N2CCOCC2)nc(N[C@H]2CCN(C(=O)Cc3ccc(OC(F)(F)F)cc3)C2)n1 [Compound 4-044] | 56 nM |
| O=C1CN(c2nc(N[C@H]3CCN(C(=O)Cc4cc(F)ccc4-c4ccc(OC(F)(F)F)cc4)C3)nc3cc(F)ccc23)CCN1 [Compound 1-133] | 4.4 nM |
| CO[C@@H]1CN(C(=O)Cc2ccc(OC(F)(F)F)cc2)C[C@H]1Nc1nc(C)cc(N2CCOCC2)n1 [Compound 13-008] | 36 nM |
| COc1ccc2nc(N[C@@H]3CN(C(=O)Cc4ccc(OC(F)(F)F)cc4)C[C@H]3O)nc(N3CCC(S(C)(=O)=O)CC3)c2c1 [Compound 11-014] | 1.4 nM |
| CC(=O)N1CCN(c2nc(N[C@@H]3CN(C(=O)Cc4ccc(OC(F)(F)F)cc4)C[C@H]3O)nc3cscc23)CC1 [Compound 8-007] | 10 nM |
| COc1ccc2nc(N[C@@H]3CN(C(=O)Cc4ccc(OC(F)(F)F)cc4)C[C@H]3OC)cc(C)c2c1 [Compound 12-010] | 3 nM |
| Cc1cc(N[C@H]2CCN(C(=O)Cc3ccc(OC(F)(F)F)cc3)C2)nc2ccc(O)cc12 [Compound 3-022] | 9.5 nM |
